From EP4628074A1, “N-PALMITOYLETHANOLAMIDE FOR USE IN COMBINATION WITH A NON-STEROIDAL ANTI-INFLAMMATORY DRUG IN THE TREATMENT OF INFLAMMATORY PAIN” (priority 2024, dated 2025)

How the values were obtained:
[1] = system: inflammatory pain induced by CFA; test: Paw pressure test, CFA-induced inflammatory pain, chronic (14 days) oral treatment (Experiment 4); type: in vivo, male Sprague-Dawley rats; details: 2x2 ANOVA on percentage inhibition of mechanical hyperalgesia, PEA-OXA 5 mg/kg + diclofenac 3 mg/kg compared with diclofenac 3 mg/kg and PEA-OXA 10 mg/kg alone, interaction line = synergy
Method: The inflammatory pain model was induced by injecting Complete Freund's Adjuvant (CFA, Sigma-Aldrich) into the tibiotarsal joint of male Sprague-Dawley rats (Charles River), housed in 26x41 cm cages at the Animal Husbandry Centre. Laboratory Animals (Ce.S.A.L.) of the University of Florence with a 12-hour circadian cycle, water and food (standard diet) "ad libitum", temperature of 23±1°C. Intra-articular injection occurred according to the method described by Butler et al. (Pain 48:73-81,1992) after light anesthesia with 2% isoflurane. The skin surrounding the injection site was sterilized with 75% ethyl alcohol. […]
The tested molecules - used both individually and in combination - were suspended in 1% CMC and administered orally daily from day 1 to day 14 (chronic treatment). […] Inflammatory pain induced by CFA injection was measured by paw pressure test. […] The nociceptive threshold has been expressed as the force to which the animal reacts by retracting its paw or vocalizing (Leighton et al., Br J Pharmacol 93:553-560,1988). An analgesimeter (Ugo Basile, Varese) was used for this purpose, which allows the mechanical hyperalgesia to be quantified. […]
The effect on pain was analyzed using Generalized Linear Model (GLM) followed by post-hoc analysis based on Tukey-Kramer correction for multiple comparisons. The results of the analyses were expressed as mean ± standard error of the mean (SEM). […]

[2] = system: collagen-induced arthritis; test: Arthritis severity score in collagen-induced arthritis (CIA) (Experiment 2); type: in vivo, Female Lewis rats; details: for effect on arthritis score: day 31 up to end of study (day 35), oral from day 25, PEA 30 mg/kg, low-dose IBU 5 mg/kg, high-dose IBU 30 mg/kg
Method: (§1) Rheumatoid arthritis is a disease characterized by inflammatory pain, in which the involved joints present swelling, stiffness and often erosive processes. Female Lewis rats were maintained on a 12/12 hour light/dark cycle, at constant temperature and humidity and acclimated for 1 week, with free access to water and standard diet. […] Arthritis score, change in paw volume (mL), and change in body weight (g) were measured as indicators of inflammatory pain. Arthritis severity was measured every other day starting on day 25, using the following score: 0 = no sign of arthritis; 1 = swelling and/or redness of the paw or toe; 2 = two joints involved; 3 = more than two joints involved; and 4 = severe arthritis of the entire paw and toes. The arthritis index for each subject was calculated by adding the four scores of the individual paws. The change in paw volume compared to day 21 was assessed every two days by plethysmometry (Ugo Basile) starting from day 25. The change in weight was measured for each animal on day 21 and then every two days starting from day 25.
(§2) The chosen inflammatory pain indicators were analyzed via Generalized Linear Model (GLM) followed by post-hoc analysis based on Tukey-Kramer correction for multiple comparisons. […] All analyzes were performed using SAS software, version 9.4 (SAS Institute, Cary, NC, USA). P value < 0.05 was considered significant.

[3] = system: collagen-induced arthritis; test: Body weight change in collagen-induced arthritis (CIA) (Experiment 2); type: in vivo, Female Lewis rats; details: from the 4th day of treatment (day 29) for the entire observation period, PEA 30 mg/kg, low-dose ibuprofen 5 mg/kg, high-dose IBU 30 mg/kg
Method: as §1, §2

[4] = system: inflammatory pain induced by sub-plantar injection of carrageenan; test: Von Frey filaments, inflammatory pain induced by sub-plantar injection of carrageenan (Experiment 3); type: in vivo, adult male Sprague-Dawley rats
Method: The experimental inflammatory pain model was induced through a sub-plantar injection of carrageenan (CAR) saline solution (0.1 mL of a 1% suspension of CAR in 0.85% saline). […] The PEA used in this experiment was in unprocessed (native) form. Von Frey filaments were used to evaluate pain, recording for each animal the mechanical tolerance threshold, i.e. the pressure (expressed in grams) endured before retracting the paw. The measurement took place using an analgesimeter (Ugo Basile, Comerio, Varese, Italy) and was conducted before the sub-plantar injection of the CAR and at the time of maximum damage (5 hours later).
The effect on pain was analyzed using Generalized Linear Model (GLM) followed by post-hoc analysis based on Tukey-Kramer correction for multiple comparisons. […] All analyses were performed using SAS software, version 9.4 (SAS Institute, Cary, NC, USA). P value < 0.05 was considered significant.

[5] = system: CFA-induced inflammatory pain; test: Paw pressure test, CFA-induced inflammatory pain, single (acute) oral administration (Experiment 1); type: in vivo, male Sprague-Dawley rats; details: for p with respect to the CFA group (pain tolerance threshold): single per os administration on day 7, GLMM with Tukey-Kramer
Excerpt: In the in vivo experimentation, male Sprague-Dawley rats (200-250 g) (Envigo, Varese, Italy) fed "ad libitum" and housed in cages with a controlled sleep/wake cycle were used.
Before the start of the study, the animals were subjected to a 1-week acclimatization period at the Center for Laboratory Animal Sheltering (Ce.S.A.L.) of the University of Florence, following all experimental procedures and protocols compliant with the principles of care and welfare of laboratory animals approved by the Italian Ministry of Health (Italian Legislative Decree 2014/26), European directives (EU Directive 2010/63) and the ARRIVE guidelines.
In order to cause inflammatory pain, Complete Freund's Adjuvant (CFA) was injected at a rate of 50 µL into the joint cavity of the left leg between the tibiofibular and tarsal bones after light anesthesia with 2% isoflurane. The control group was subjected to the same procedure, injecting an equal volume of saline solution (vehicle).
The animals were divided into 9 groups of 6 rats each and treated acutely per os with a single administration, starting from the seventh day after the induction of joint damage. • Group 1: healthy rats subjected to intra-articular injection of saline (vehicle group) • Group 2: rats injected with CFA and treated with 1% CMC, corresponding to the vehicle in which the compounds for the treatments of the following groups were suspended (CFA group); • Group 3: rats injected with CFA and treated with micronized PEA 10 mg/kg; • Group 4: rats injected with CFA and treated with diclofenac 30 mg/kg; • Group 5: rats injected with CFA and treated with diclofenac 3 mg/kg; • Group 6: rats injected with CFA and treated with diclofenac 3 mg/kg + micronized PEA 10 mg/kg; • Group 7: rats injected with CFA and treated with meloxicam 30 mg/kg; • Group 8: rats injected with CFA and treated with meloxicam 3 mg/kg; • Group 9: rats injected with CFA and treated with meloxicam 3 mg/kg + micronized PEA 10 mg/kg.
All animals were subjected to the paw pressure test at the level of the ipsilateral paw, performed before (T0) or after 15, 30, 45 and 60 minutes after the single administration of the treatment (T15, T30, T45 and T60, respectively). In particular, the nociceptive threshold was calculated with an analgesiometer (Ugo Basile, Varese, Italy) by applying an increasing pressure at constant speed (32 g/s) by means of a non-pointed conical support on the dorsal surface of the ipsilateral paw with respect to the injection of CFA (or vehicle). The nociceptive threshold was expressed as the force (in decagrams, dag) to which the animal reacts by retracting the paw or vocalizing (Leighton GE et al. kappa-Opioid agonists produce antinociception after i.v. and i.c.v. but not intrathecal administration in the rat. Br J Pharmacol. 1988; 93: 553-60).
The values emerged from the paw pressure test in the different treatment groups were compared with each other using the Generalized Linear Mixed Model (GLMM) followed by post-hoc analysis based on Tukey-Kramer correction for multiple comparisons, referring to the single treatment group, considering all the times.
The AUC was analyzed by a two-way factor analysis of variance (2x2 ANOVA), after plotting the mean values, according to the procedure shown by Slinker BK. The statistics of synergism. J Mol Cell Cardiol. 1998 Apr;30(4):723-31. The values were expressed as mean ± standard error mean (SEM). All the statistical analyses were carried out using the software SAS, version 9.4 (SAS Institute, Cary, NC, USA). The value p < 0.05 was considered significant.

CCCCCCCCCCCCCCCC1=NCCO1 [PEA-OXA, 2-pentadecyl-2-oxazoline]
Pr > F [1]: <0,0001

CC(C)Cc1ccc(C(C)C(=O)O)cc1 (centres unmarked) [ibuprofen]
p versus vehicle (arthritis score) ([2]; day 31, after six days of oral treatment, PEA+IBU = PEA 30 mg/kg + ibuprofen 5 mg/kg, IBUhd = ibuprofen 30 mg/kg): < 0.0001 | arthritis score ([2]; day 31, after six days of oral treatment, PEA+IBU = micronized PEA 30 mg/kg + ibuprofen 5 mg/kg, IBUhd = ibuprofen 30 mg/kg, mean ± SEM, vehicle 13.2 ± 0.48): 8.7 ± 0.49 | effect on arthritis score [2]: effective in reducing the arthritis score | effect on arthritis score ([2]; listed as Low-dose IBUs): had no effect | effect on weight reduction induced by arthritis pain ([3]; listed as high-dose IBU): significantly counteracted | effect on weight reduction induced by arthritis pain ([3]; listed as low-dose ibuprofen): neither PEA nor low-dose ibuprofen exerted any effect | Pr > F ([4]; 2x2 factorial analysis on tolerance threshold (Von Frey), native PEA 100 mg/kg, ibuprofen 5 mg/kg, PEA*Ibu = interaction (synergy)): 0,0111 | analgesic activity (tolerance threshold) ([4]; ibuprofen 30 mg/kg, single oral administration): shown to be active | mechanical tolerance threshold compared to the vehicle-treated group ([4]; single oral administration 30 minutes before carrageenan, measured 5 hours later, unprocessed (native) PEA 100 mg/kg and/or ibuprofen 5 mg/kg): equally inactive dose

Cc1cnc(NC(=O)C2=C(O)c3ccccc3S(=O)(=O)N2C)s1 [meloxicam, Meloxicam]
Pr > F ([5]; ANOVA 2x2 on AUC of paw pressure test (Figure 4), PEA 10 mg/kg, meloxicam 3 mg/kg, line PEA*Mel 3 = interaction (synergy)): <0.0001 | p with respect to the CFA group (pain tolerance threshold) ([5]; CFA-injected rats, NSAID 30 mg/kg): 0.0001 | p with respect to the CFA group (pain tolerance threshold) ([5]; CFA-injected rats, micronized PEA 10 mg/kg and/or NSAID 3 mg/kg): 0.1405 | pain tolerance threshold with respect to the CFA group ([5]; CFA-injected rats, single per os administration on day 7 after CFA, micronized PEA 10 mg/kg and/or NSAID 3 mg/kg, T0-T60 min, all times considered): no significant effect
